According to patent publication US6608086B2, “Dihydropyridines and new uses thereof” (Synaptic Pharmaceutical Corporation, priority 1993, dated 2003):
Where a name gives a salt, the structure may show the parent alone. Read-outs that look alike come from different tables or passages of the source.

Tests used:
α2B receptor = biological target: T1, α2B receptor (Homo sapiens, UniProt P18089); assay: Competition binding, [3H]rauwolscine, human α2B receptor
T1 construct: host or cells: LM(tk-) cells, line L-NGC-α2B
T1 sequence (P18089 1-450): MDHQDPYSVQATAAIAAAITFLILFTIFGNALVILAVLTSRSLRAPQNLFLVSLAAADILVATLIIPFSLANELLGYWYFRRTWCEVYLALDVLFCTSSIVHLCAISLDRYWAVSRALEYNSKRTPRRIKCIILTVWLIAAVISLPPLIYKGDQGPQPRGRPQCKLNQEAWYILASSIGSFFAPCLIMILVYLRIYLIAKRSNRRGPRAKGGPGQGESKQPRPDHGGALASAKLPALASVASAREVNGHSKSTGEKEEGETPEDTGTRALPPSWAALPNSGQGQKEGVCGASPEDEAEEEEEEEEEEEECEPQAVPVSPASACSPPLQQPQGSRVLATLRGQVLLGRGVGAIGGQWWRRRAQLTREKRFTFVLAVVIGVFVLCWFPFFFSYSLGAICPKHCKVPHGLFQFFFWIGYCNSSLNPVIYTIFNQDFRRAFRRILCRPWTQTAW
Summary of the method: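 Lysates of LM(tk−) cells stably expressing human α2A, α2B or α2C receptors in 25 mM glycylglycine pH 7.6. Equilibrium competition against 0.5 nM [3H]rauwolscine, with 10 μM phentolamine defining nonspecific binding. Bound ligand separated by GF/B filtration.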

[1] = biological target: T2, α1C Human Adrenergic Receptor (Homo sapiens, UniProt P35348); assay: Radioligand binding, [3H]prazosin, cloned human α1C adrenergic receptor
T2 construct: The entire coding region of α1C (1401 bp); expressed in transfected cells
T2 sequence (P35348 1-466): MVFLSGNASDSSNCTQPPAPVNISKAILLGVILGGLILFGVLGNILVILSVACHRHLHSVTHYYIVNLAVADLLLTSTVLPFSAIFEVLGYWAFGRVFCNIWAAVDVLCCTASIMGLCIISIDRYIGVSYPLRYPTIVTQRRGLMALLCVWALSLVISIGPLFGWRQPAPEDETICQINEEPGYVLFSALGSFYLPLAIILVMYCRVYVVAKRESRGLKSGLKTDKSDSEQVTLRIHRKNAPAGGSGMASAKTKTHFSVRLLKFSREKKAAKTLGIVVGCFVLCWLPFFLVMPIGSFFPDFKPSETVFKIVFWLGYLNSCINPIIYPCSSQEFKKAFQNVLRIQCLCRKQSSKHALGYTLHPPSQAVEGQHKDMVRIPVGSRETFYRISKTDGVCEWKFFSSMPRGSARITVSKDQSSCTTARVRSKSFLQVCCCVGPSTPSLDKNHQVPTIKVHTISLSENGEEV
Summary of the method: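 Read-out is filter-retained [3H]prazosin (0.5 nM) bound to membranes of LM(tk−) cells stably carrying the human α1C receptor. Incubation ran 20 min at 37° C. at pH 7.5, with 10 μM phentolamine marking nonspecific binding.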

[2] = biological target: T3, α1B Human Adrenergic Receptor (Homo sapiens, UniProt P35368); assay: Radioligand binding, [3H]prazosin, cloned human α1B adrenergic receptor
T3 construct: The entire coding region of α1B (1563 bp); expressed in transfected cells
T3 sequence (P35368 1-520): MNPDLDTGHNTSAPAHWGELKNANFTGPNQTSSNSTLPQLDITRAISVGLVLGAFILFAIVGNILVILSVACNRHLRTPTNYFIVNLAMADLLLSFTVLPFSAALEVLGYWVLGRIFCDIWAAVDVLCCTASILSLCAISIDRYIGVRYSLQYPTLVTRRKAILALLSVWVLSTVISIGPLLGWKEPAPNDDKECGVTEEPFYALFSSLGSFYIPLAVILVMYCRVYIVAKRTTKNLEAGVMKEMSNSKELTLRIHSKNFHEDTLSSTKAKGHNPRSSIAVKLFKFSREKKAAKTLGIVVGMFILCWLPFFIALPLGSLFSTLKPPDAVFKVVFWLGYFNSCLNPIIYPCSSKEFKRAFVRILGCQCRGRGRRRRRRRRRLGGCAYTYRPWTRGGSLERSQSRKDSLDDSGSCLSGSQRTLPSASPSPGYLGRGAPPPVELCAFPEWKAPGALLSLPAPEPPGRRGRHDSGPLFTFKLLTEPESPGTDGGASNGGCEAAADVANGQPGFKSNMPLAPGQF
Summary of the method: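 Membranes from stably transfected LM(tk−) cells, resuspended in 50 mM Tris-HCl, 1 mM MgCl2, 0.1% ascorbic acid, pH 7.5, were incubated with 0.5 nM [3H]prazosin for 20 min at 37° C. Nonspecific binding defined with 10 μM phentolamine; bound ligand separated by GF/B filtration.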

[3] = [3H]rauwolscine, LM(tk-) cell line L-NGC-α2B, SEM and n in lines below, read-out: pKi alpha-2 2b (converted)
[4] = cloned human receptor in LM(tk-) cell membranes, SEM and n in lines below, read-out: pKi alpha-1 1c (converted)
[5] = cloned human receptor in LM(tk-) cell membranes, SEM and n in lines below, read-out: pKi alpha-1 1b (converted)
[6] = [3H]rauwolscine, LM(tk-) cell line L-NGC-α2B, SEM and n in lines below
[7] = cloned human receptor in LM(tk-) cell membranes, SEM and n in lines below
[8] = cloned human α1C receptor, LM(tk-) cell membranes, read-out: PKi alpha-1 1c (converted)
[9] = cloned human α1B receptor, LM(tk-) cell membranes, read-out: PKi alpha-1 1b (converted)
[10] = cloned human receptor, LM(tk-) cell membranes, mean, read-out: PKi alpha-1 1c (converted)
[11] = cloned human receptor, LM(tk-) cell membranes, mean, read-out: PKi alpha-1 1b (converted)

For `CCC1=C(C(=O)NCCCN2CCC(c3ccccc3)CC2)C(c2ccc([N+](=O)[O-])cc2)C(C(=O)OC)=C(C)N1` (stereo not drawn) [Example 74, 2-Ethyl-1,4-dihydro-5-methoxycarbonyl-6-methyl-4-(4-nitro)phenyl-3-(N-(3-(4-phenylpiperidin-1-yl)propyl)) carboxamidopyridine hydrochloride hydrate], which Ki (α2B receptor; [3]) is on record?
The Ki was 0.0891 µM.

What about the Ki [1, 4] of the same compound?
The Ki was 0.000501 µM.

And the Ki [2, 5]?
Its Ki is 0.0191 µM.

With `CC1=C(C(=O)NCCCN2CCC(c3ccccc3)(c3ccccc3)CC2)C(c2ccc([N+](=O)[O-])cc2)C(C(=O)N(C)C)=C(C)N1` (stereo not drawn) [Example 39, 1,4-Dihydro-2,6-dimethyl-3-(N,N-dimethyl) carboxamido-4-(4-nitrophenyl)-5-{N-[3-(4,4-diphenylpiperidin-1-yl)propyl]}carboxamidopyridine] as the compound, how does the “pKi alpha-2 2b” value (α2B receptor; [6]) read?
Its value is 5.74.

What about the “pKi alpha-1 1c” value [1, 7] of the same compound?
The value was 7.23.

And the “pKi alpha-1 1b” value [2, 7]?
The value was 5.93.

For `CCOC(=O)C1(c2ccccc2)CCN(CCCNC(=O)C2=C(COC)NC(CC)=C(C(=O)O)C2c2ccc([N+](=O)[O-])cc2)CC1` (stereo not drawn) [Example 240, 3-(N-3-(4-Ethoxycarbonyl-4-phenylpiperidin-1-yl)propyl)carboxamido-6-ethyl-1,4-dihydro-2-(methyloxy)methyl-4-(4-nitro)phenylpyridine-5-carboxylic Acid], which Ki (α2B receptor; PKi alpha-2 2b) is on record?
Its Ki is 6.31 µM.

What about the Ki [1, 8] of the same compound?
Its Ki is 0.0269 µM.

What about the Ki [2, 9] of the same compound?
The Ki was 4.47 µM.

How did the Ki (α2B receptor; [3H]rauwolscine, human α2B receptor, LM(tk−) cells, read-out: pKi alpha-2 2b (converted)) turn out when `COc1ccccc1N1CCN(CCCNC(=O)C2=C(C)NC(C)=C(C(N)=O)C2c2ccc([N+](=O)[O-])cc2)CC1` (stereo not drawn) [Example 124] was run?
Its Ki is 0.2 µM.

What about the Ki ([1]; cloned human α1C receptor, LM(tk−) cell membranes, read-out: pKi alpha-1 1c (converted)) of the same compound?
The Ki was 0.00195 µM.

And the Ki ([2]; cloned human α1B receptor, LM(tk−) cell membranes, read-out: pKi alpha-1 1b (converted))?
Its Ki is 0.0891 µM.

Which Ki (α2B receptor; [3]) does the source give for `COC(=O)C1=C(C)NC(C)=C(C(=O)OCCCN2CCC(c3ccccc3)CC2)C1c1ccc([N+](=O)[O-])cc1` (stereo not drawn) [Example 48, 1,4-Dihydro-5-methazycarbonyl-2,6-dimethyl-4-(4-nitrophenyl)-3-[3-(4-phenylpiperidin-1-yl)propoxy]}carbonylpyridine hydrochloride hydrate] here?
Its Ki is 0.813 µM.

What about the Ki [1, 4] of the same compound?
Its Ki is 0.000525 µM.

What about the Ki [2, 5] of the same compound?
Its Ki is 0.00263 µM.

For `COC(=O)C1=C(C)NC(C)=C(C(=O)NCCCN2CCCCC2)C1c1ccc([N+](=O)[O-])cc1` (stereo not drawn) [Example 51, 1,4-Dihydro-3-methoxycarbonyl-2,6-dimethyl-4-(4-nitrophenyl)-5-{N-[3-(piperidin-1-yl)propyl]}carboxamidopyridine hydrochloride etherate], which Ki (α2B receptor; [3]) is on record?
The Ki was 0.513 µM.

And the Ki [1, 4]?
Its Ki is 0.479 µM.

And the Ki [2, 5]?
Its Ki is 5.01 µM.

`CCC1=C(C(=O)NC)C(c2ccc([N+](=O)[O-])cc2)C(C(=O)NCCCN2CCC(C(=O)OC)(c3ccccc3)CC2)=C(COCCN)N1` (stereo not drawn) [Example 229, 2-((2-Aminoethyl)oxy)methyl-6-ethyl-1,4-dihydro-3-(N-(3-(4-methoxycarbonyl-4-phenylpiperidin-1-yl)propyl))carbo xamido-5-N-methylcarboxamido-4-(4-nitro)phenylpyridine] was tested. Which Ki (α2B receptor; [3H]rauwolscine, human receptor, LM(tk-) cell lysates, mean, read-out: PKi alpha-2 2b (converted)) did it give?
Its Ki is 5.37 µM.

And the Ki [1, 10]?
The Ki was 0.00708 µM.

And the Ki [2, 11]?
Its Ki is 1.38 µM.

What does the source list for `COC(=O)C1=C(C)NC(C)=C(C(=O)NCCCN2CCC(c3ccccc3)CC2)C1c1ccc2c(c1)OCO2` (stereo not drawn) [Example 250]?
Ki (α2B receptor; [3H]rauwolscine, human α2B receptor, LM(tk-) cells, read-out: PKi alpha-2 2b (converted)): 0.0398 µM; Ki [1, 8]: 0.0011 µM; Ki [2, 9]: 0.0692 µM

What does the source list for `COC(=O)C1=C(C)NC(C)=C(C(=O)NCCCCN2CCC(c3ccccc3)(c3ccccc3)CC2)C1c1ccc([N+](=O)[O-])cc1.Cl.O` (stereo not drawn) [Example 53, 1,4-Dihydro-3-methoxycarbonyl-2,6-dimethyl-4-(4-nitrophenyl)-5-{N-[4-(4,4-diphenylpiperidin-1-yl)butyl]}carboxamidopyridine hydrochloride hydrate]?
pKi alpha-2 2b (α2B receptor; [6]): 6.34; pKi alpha-1 1c [1, 7]: 7.83; pKi alpha-1 1b [2, 7]: 6.87

What does the source list for `CCC1=C(C(=O)OC)C(c2ccc([N+](=O)[O-])cc2)C(C(=O)NCCCN2CCC(C(=O)OC)(c3ccccc3)CC2)=C(COCCN)N1` (stereo not drawn) [Example 235, 2-((2-Aminoethyl)oxy)methyl-6-ethyl-1,4-dihydro-5-methoxycarbonyl-3-(N-(3-(4-methoxycarbonyl-4-phenylpiperidin-1-yl)propyl))carboxamido-4-(4-nitro)phenylpyridine]?
Ki (α2B receptor; PKi alpha-2 2b): 2.95 µM; Ki [1, 10]: 0.00209 µM; Ki [2, 11]: 0.219 µM
